Test results published in patent US20160159774A1 (Celgene Avilomics Research, Inc., priority 2014, published 2016).

Legend:
[1] = biological target: T1, BTK in Ramos human Burkitt lymphoma cells (Homo sapiens, UniProt Q06187); experiment: BTK Ramos cellular assay (BTK occupancy); type: cell-based; conditions: concentration producing 50% occupancy of BTK, 1 hour incubation with compound
T1 construct: Compounds of this invention were assayed in Ramos human Burkitt lymphoma cells; endogenous in cells; host or cells: Ramos human Burkitt lymphoma cells
Experimental: BTK activity in Ramos cells, in the presence of a compound of the invention, can be measured by 3 different methods: 1) inhibition of autophosphorylation of BTK; 2) inhibition of phosphorylation of the immediate BTK surrogate PLCγ2; and 3) BTK occupancy. […] In this instance, BTK occupancy was chosen and is described below.
Compounds of this invention were assayed in Ramos human Burkitt lymphoma cells. Ramos cells were grown in suspension in T175 flasks, spun down, resuspended to a concentration of 2×10^6 cells per mL in serum-free media and incubated for 1 hour. Compound was added to Ramos cells to a final concentration of 500, 166.7, 55.6, 18.5, 6.2, 2.1, and 0.7 nM. Ramos cells were incubated with compound for 1 hour, washed with PBS and lysed in 1004 of BioRad lysis Buffer. Cell lysates were incubated with a biotinylated covalent probe (compound 1-215 disclosed in U.S. published application number 2010/0029610, incorporated by reference in its entirety) at a final concentration of 1 μM in a PBS, 0.05% Tween-20, 1% BSA solution for 1 h at room temperature. Standards and samples were transferred to a streptavidin-coated 96-well ELISA plate and mixed while shaking for 1 h at room temperature. The α-Btk antibody (BD 611116, 1:1000 dilution in PBS+0.05% Tween-20+0.5% BSA) was then added and incubated for 1 h at room temperature. After wash, goat α-mouse-HRP (1:5000 dilution in PBS+0.05% Tween-20+0.5% BSA) was added and incubated for 1 h at room temperature. The ELISA was developed with addition of tetramethyl benzidine (TMB) followed by Stop Solution and read at OD 450 nm. The standard curve (11.7-3000 pg/μL) was generated with human full-length recombinant Btk protein and plotted using a 4 parameter curve fit in Gen5 software. Uninhibited Btk detected from samples was normalized to μg total protein as determined by BCA protein analysis (Pierce Cat. 23225).
The results of this assay show the concentration of compound producing 50% occupancy of BTK. This level of occupancy empirically translates to a level of 50% inhibition of BTK activity (both as measured by autophosphorylation and by phosphorylation of PLCγ2). […] The compound numbers correspond to the compound numbers in the examples.

[2] = biological target: T2, activated BTK enzyme (Homo sapiens, UniProt Q06187); experiment: Omnia assay for potency assessment against BTK; type: biochemical; conditions: BTK inhibition assay; [BTK]=5 nM, [ATP]=40 μM, [Y5-Sox]=10 μM
T2 construct: purchased Life Technologies PV3363
From the text: Omnia Assay Protocol for Potency Assessment Against BTK
The protocol below describes an assay to measure potency of compounds against the activated BTK enzyme. The mechanics of the assay platform are best described by the vendor (Life Technologies, Carlsbad, Calif.) on their website at the following URLs: www.lifetechnologies.com/us/en/home/life-science/drug-discovery/target-and-lead-identification-and-validation/kinasebiology/kinase-activity-assays/omnia-kinase-assays/omnia-kinase-principle.html and tools.lifetechnologies.com/content/sfs/manuals/omnia_kinase_assay_man.pdf
Briefly, 10× stocks of BTK (PV3363) from Life Technologies, 1.13×ATP (AS00lA) and Sox conjugated peptide substrates, Y5-Sox, (KZN305l) were prepared in 1× kinase reaction buffer consisting of 20 mM Tris, pH 7.5, 5 mM MgCl2, 1 mM EGTA, 5 mM (3-glycerophosphate, 5% glycerol (10× stock, KB002A) and 0.2 mM DTT (DS00lA). 5 μL of each enzyme were pre-incubated in a Corning (#3574) 384-well, white, non-binding surface microtiter plate (Corning, N.Y.) for 30 min. at room temperature with a 0.5 μL volume of 50% DMSO or serially diluted compounds prepared in 50% DMSO. Kinase reactions were started with the addition of […] of the ATP/Tyr-Sox peptide substrate Y5 mix and monitored every 71 seconds for 60 minutes at λex360/λem485 in a Synergy4 plate reader from BioTek (Winooski, Vt.). At the conclusion of each assay, progress curves from each well were examined for linear reaction kinetics and fit statistics (R2, 95% confidence interval, absolute sum of squares). Initial velocity (0 minutes to ˜30 minutes) from each reaction was determined from the slope of a plot of relative fluorescence units vs time (minutes) and then plotted against inhibitor concentration to estimate IC50 from log [Inhibitor] vs Response, Variable Slope model in GraphPad Prism from GraphPad Software (San Diego, Calif.).
Reagent conditions for the assay are:
[BTK]=5 nM, [ATP]=40 μM, [Y5-Sox]=10 μM (ATP KMapp˜36 μM).
The compound numbers correspond to the compound numbers in the examples.

T2 sequence (Q06187 whole entry): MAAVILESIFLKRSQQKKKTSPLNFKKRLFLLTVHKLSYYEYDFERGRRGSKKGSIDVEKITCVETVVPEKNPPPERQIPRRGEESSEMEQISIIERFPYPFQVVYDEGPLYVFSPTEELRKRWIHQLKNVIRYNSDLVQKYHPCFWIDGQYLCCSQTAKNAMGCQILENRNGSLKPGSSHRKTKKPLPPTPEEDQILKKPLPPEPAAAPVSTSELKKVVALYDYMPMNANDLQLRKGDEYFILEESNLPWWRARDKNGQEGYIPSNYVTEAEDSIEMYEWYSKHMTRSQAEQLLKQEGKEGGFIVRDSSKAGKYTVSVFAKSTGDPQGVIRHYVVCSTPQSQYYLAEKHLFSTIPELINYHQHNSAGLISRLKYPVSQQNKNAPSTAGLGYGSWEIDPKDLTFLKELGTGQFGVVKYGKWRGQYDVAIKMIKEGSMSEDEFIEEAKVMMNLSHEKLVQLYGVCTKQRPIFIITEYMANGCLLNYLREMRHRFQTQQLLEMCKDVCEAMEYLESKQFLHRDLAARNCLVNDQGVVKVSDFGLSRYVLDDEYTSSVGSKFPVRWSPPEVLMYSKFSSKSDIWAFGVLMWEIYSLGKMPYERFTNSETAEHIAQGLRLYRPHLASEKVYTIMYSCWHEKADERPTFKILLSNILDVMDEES
T1 sequence (Q06187 whole entry): as above

Row | Compound | EC50 [1] [nM] | IC50 [2] [nM]
1 | C=CC(=O)N1CCC[C@@H](Nc2nc(Nc3ccc4c(c3)CNC4)ncc2F)C1 [Compound I-1, (R)-1-(3-((5-fluoro-2-(isoindolin-5-ylamino)pyrimidin-4-yl)amino)piperidin-1-yl)prop-2-en-1-one] | 10 to 100 | < 10
2 | C=CC(=O)N1CCC[C@@H](Nc2nc(Nc3ccc4c(c3)CN(C)C4)ncc2F)C1 [Compound I-2, (R)-1-(3-((5-Fluoro-2-((2-methylisoindolin-5-yl)amino)pyrimidin-4-yl)amino)piperidin-1-yl)prop-2-en-1-one] | < 10 | < 10
3 | C=CC(=O)N1CCC[C@@H](Nc2nc(Nc3ccc4c(c3)CN(C(C)=O)C4)ncc2F)C1 [Compound I-3, (R)-1-(3-((2-((2-Acetylisoindolin-5-yl)amino)-5-fluoropyrimidin-4-yl)amino)-piperidin-1-yl)prop-2-en-1-one] | 101 to 1000 | < 10
4 | C=CC(=O)N1CCC[C@@H](Nc2nc(Nc3ccc4c(c3)CN(CCOC)C4)ncc2F)C1 [Compound I-4, (R)-1-(3-((5-Fluoro-2-((2-(2-methoxyethyl)isoindolin-5-yl)amino)pyrimidin-4-yl)amino)piperidin-1-yl)prop-2-en-1-one] | 10 to 100 | < 10
5 | C=CC(=O)N1CCC[C@@H](Nc2nc(Nc3ccc4c(c3)CN(C3CCNCC3)C4)ncc2F)C1 [Compound I-5, (R)-1-(3-((5-fluoro-2-((2-(piperidin-4-yl)isoindolin-5-yl)amino)pyrimidin-4-yl)amino)piperidin-1-yl)prop-2-en-1-one] | 101 to 1000 | < 10
6 | C=CC(=O)N1CCC[C@@H](Nc2nc(Nc3ccc4c(c3)CN(CC3CCNCC3)C4)ncc2F)C1 [Compound I-6, (R)-1-(3-((5-Fluoro-2-((2-(piperidin-4-ylmethyl)isoindolin-5-yl)amino)pyrimidin-4-yl)amino)piperidin-1-yl)prop-2-en-1-one] | 101 to 1000 | < 10
7 | C=CC(=O)N1CCC[C@@H](Nc2nc(Nc3ccc4c(c3)CN(C3CCN(C)CC3)C4)ncc2F)C1 [Compound I-7, (R)-1-(3-((5-Fluoro-2-((2-(1-methylpiperidin-4-yl)isoindolin-5-yl)amino)-pyrimidin-4-yl)amino)piperidin-1-yl)prop-2-en-1-one] | 10 to 100 | < 10
8 | C=CC(=O)N1CCC[C@@H](Nc2nc(Nc3ccc4c(c3)CN(CC3CCN(C)CC3)C4)ncc2F)C1 [Compound I-8] | < 10 | < 10
9 | C=CC(=O)N1CCC[C@@H](Nc2nc(Nc3ccc4c(c3)CN(C3CCN(C(C)=O)CC3)C4)ncc2F)C1 [Compound I-9, (R)-1-(3-(2-(2-(1-Acetylpiperidin-4-yl)isoindolin-5-ylamino)-5-fluoropyrimidin-4-ylamino)piperidin-1-yl)prop-2-en-1-one] | 10 to 100 | < 10
10 | C=CC(=O)N1CCC[C@@H](Nc2nc(Nc3ccc4c(c3)CN(CC3CCN(C(C)=O)CC3)C4)ncc2F)C1 [Compound I-10] | 10 to 100 | < 10
11 | C=CC(=O)N1CCC[C@@H](Nc2nc(Nc3ccc4c(c3)CN(CC3CCOCC3)C4)ncc2F)C1 [Compound I-11, (R)-1-(3-(5-Fluoro-2-(2-((tetrahydro-2H-pyran-4-yl)methyl)isoindolin-5-ylamino)pyrimidin-4-ylamino)piperidin-1-yl)prop-2-en-1-one] | < 10 | < 10
12 | C=CC(=O)N1CCC[C@@H](Nc2nc(Nc3ccc4c(c3)CN(C3CCOCC3)C4)ncc2F)C1 [Compound I-12, (R)-1-(3-((5-Fluoro-2-((2-(tetrahydro-2H-pyran-4-yl)isoindolin-5-yl)amino)-pyrimidin-4-yl)amino)piperidin-1-yl)prop-2-en-1-one] | 10 to 100 | < 10
13 | C=CC(=O)N1CCC[C@@H](Nc2nc(Nc3ccc4c(c3)CN(C3COC3)C4)ncc2F)C1 [Compound I-13, (R)-1-(3-((5-Fluoro-2-((2-(oxetan-3-yl)isoindolin-5-yl)amino)pyrimidin-4-yl)amino)piperidin-1-yl)prop-2-en-1-one] | 10 to 100 | < 10
14 | C=CC(=O)N1CCC[C@@H](Nc2nc(Nc3ccc4c(c3)CN(CC(C)(C)C)C4)ncc2F)C1 [Compound I-14, (R)-1-(3-((5-Fluoro-2-((2-neopentylisoindolin-5-yl)amino)pyrimidin-4-yl)amino)piperidin-1-yl)prop-2-en-1-one] | 10 to 100 | < 10
15 | C=CC(=O)N1CCC[C@@H](Nc2nc(Nc3ccc4c(c3)CN(CC3COC3)C4)ncc2F)C1 [Compound I-15, (R)-1-(3-((5-Fluoro-2-((2-(oxetan-3-ylmethyl)isoindolin-5-yl)amino)pyrimidin-4-yl)amino)piperidin-1-yl)prop-2-en-1-one] | 10 to 100 | < 10
16 | C=CC(=O)N1CCC[C@@H](Nc2nc(Nc3ccc4c(c3)CN(CC(N)=O)C4)ncc2F)C1 [Compound I-16] | < 10 | < 10
17 | C=CC(=O)N1CCC[C@@H](Nc2nc(Nc3ccc4c(c3)CN(C(C)C)C4)ncc2F)C1 [Compound I-17, (R)-1-(3-((5-Fluoro-2-((2-isopropylisoindolin-5-yl)amino)pyrimidin-4-yl)amino)piperidin-1-yl)prop-2-en-1-one] | < 10 | < 10
18 | C=CC(=O)N1CCC[C@@H](Nc2nc(Nc3ccc4c(c3)CN(C3CCC3)C4)ncc2F)C1 [Compound I-18, (R)-1-(3-((2-((2-Cyclobutylisoindolin-5-yl)amino)-5-fluoropyrimidin-4-yl)amino)piperidin-1-yl)prop-2-en-1-one] | < 10 | < 10
19 | C=CC(=O)N1CCC[C@@H](Nc2nc(Nc3ccc4c(c3)CN(CC3CC3)C4)ncc2F)C1 [Compound I-19, (R)-1-(3-((2-((2-(cyclopropylmethyl)isoindolin-5-yl)amino)-5-fluoropyrimidin-4-yl)amino)piperidin-1-yl)prop-2-en-1-one] | < 10 | < 10
20 | [2H]C([2H])([2H])N1Cc2ccc(Nc3ncc(F)c(N[C@@H]4CCCN(C(=O)C=C)C4)n3)cc2C1 [Compound I-20, (R)-1-(3-((5-Fluoro-2-((2-deuteromethylisoindolin-5-yl)amino)pyrimidin-4-yl)amino)piperidin-1-yl)prop-2-en-1-one] | < 10 | < 10
21 | C=CC(=O)N1CCC[C@@H](Nc2nc(Nc3ccc4c(c3)CN(C3CC3)C4)ncc2F)C1 [Compound I-21, (R)-1-(3-((2-((2-cyclopropylisoindolin-5-yl)amino)-5-fluoropyrimidin-4-yl)amino)piperidin-1-yl)prop-2-en-1-one] | 10 to 100 | < 10
22 | C=CC(=O)N1CC2CC(Nc3nc(Nc4ccc5c(c4)CN(C)C5)ncc3F)C1C2 (stereo not shown) [Compound I-66, 1-(6-((5-fluoro-2-((2-methylisoindolin-5-yl)amino)pyrimidin-4-yl)amino)-2-azabicyclo[2.2.1]heptan-2-yl)prop-2-en-1-one] |  | 101 to 1000
